# Assay: RP, Waters ACQUITY UPLC BEH C18, 100 × 2.1 mm, 1.7 µm, 0.3 mL/min, estimated dead time 0.73 min; A: water + 0.1% formic acid, pH 3; B: methanol + 0.1% formic acid, pH 3; gradient (min/%B) 0/10 14/90 16/90 18/10
# Details: stereoisomer not certain
row,SMILES,LC retention time [min]
1,Cc1cc(NS(=O)(=O)c2ccc(N)cc2)no1 [Sulfamethoxazole],3.91
2,COc1ccc(NS(=O)(=O)c2ccc(N)cc2)nn1 [Sulfamethoxypyridazine],3.65
3,CC(=O)Nc1ccc(S(=O)(=O)Nc2ccc([N+](=O)[O-])cc2)cc1 [Sulfanitran],7.27
4,Nc1ccc(S(=O)(=O)Nc2ccccn2)cc1 [Sulfapyridine],2.55
5,Nc1ccc(S(=O)(=O)Nc2nccs2)cc1 [Sulfathiazole],2.26
6,CCS(=O)(=O)c1nc2ccccn2c1S(=O)(=O)NC(=O)Nc1nc(OC)cc(OC)n1 [Sulfosulfuron],6.42
7,CCOP(=S)(OCC)OP(=S)(OCC)OCC [Sulfotep],11.5
8,CCCSP(=S)(OCC)Oc1ccc(SC)cc1 (stereo not drawn) [Sulprofos],14.2
9,CC(=O)OCC12CC(OC(=O)CC(C)C)C(C)=CC1OC1C(O)C(OC(C)=O)C2(C)C12CO2 (stereo not drawn) [T2 Toxin],9.98
10,CCCCCc1cc(O)c2c(c1)OC(C)(C)C1CC=C(C(=O)O)CC21 (stereo not drawn) [THC-COOH],13.9
11,CCCCCc1cc(O)c2c(c1)OC(C)(C)C1CCC(C)=CC21 (stereo not drawn) [THC],15.2
12,CC(C)(C)C(O)(CCc1ccc(Cl)cc1)Cn1cncn1 (stereo not drawn) [Tebuconazole],11.8
13,CCc1ccc(C(=O)NN(C(=O)c2cc(C)cc(C)c2)C(C)(C)C)cc1 [Tebufenozide],11.5
14,CCc1nn(C)c(C(=O)NCc2ccc(C(C)(C)C)cc2)c1Cl [Tebufenpyrad],13.2
15,CC(C)N(Cc1ccccc1)C(=O)C(C)(C)C [Tebutam],11.1
16,CNC(=O)N(C)c1nnc(C(C)(C)C)s1 [Tebuthiuron],7.79
17,O=C(NC(=O)c1c(F)cccc1F)Nc1cc(Cl)c(F)c(Cl)c1F [Teflubenzuron],13
18,CN1C(=O)C(O)N=C(c2ccccc2)c2cc(Cl)ccc21 (stereo not drawn) [Temazepam],10.1
19,COP(=S)(OC)Oc1ccc(Sc2ccc(OP(=S)(OC)OC)cc2)cc1 [Temephos (Abate)],13
20,Cc1[nH]c(=O)n(C(C)(C)C)c(=O)c1Cl [Terbacil],7.42
21,CN(CC=CC#CC(C)(C)C)Cc1cccc2ccccc12 [Terbinafine],13.7
22,CCNc1nc(NC(C)(C)C)nc(OC)n1 [Terbumeton],8.02
23,CCNc1nc(Cl)nc(NC(C)(C)C)n1 [Terbuthylazine],10.5

row,SMILES,LC retention time [min]
1,CCNc1nc(NC(C)(C)C)nc(SC)n1 [Terbutryn],9.91
2,Cc1ncc([N+](=O)[O-])n1CCCO [Ternidazole],2.89
3,FC(F)C(F)(F)OCC(Cn1cncn1)c1ccc(Cl)cc1Cl (stereo not drawn) [Tetraconazole],11.6
4,CN(C)C1C(=O)C(C(N)=O)=C(O)C2(O)C(=O)C3=C(O)c4c(O)cccc4C(C)(O)C3CC12 (stereo not drawn) [Tetracycline],4.37
5,CC(C)=CC1C(C(=O)OCN2C(=O)C3=C(CCCC3)C2=O)C1(C)C (stereo not drawn) [Tetramethrin],12.8
6,N#CN=C1SCCN1Cc1ccc(Cl)nc1 [Thiacloprid],6.28
7,CN1COCN(Cc2cnc(Cl)s2)C1=N[N+](=O)[O-] [Thiamethoxam],3.27
8,CS(=O)(=O)c1ccc(C(O)C(CO)NC(=O)C(Cl)Cl)cc1 (stereo not drawn) [Thiamphenicol],3.6
9,O=C(Nc1ccccc1)Nc1cnns1 [Thidiazuron],7.36
10,COC(=O)c1sccc1S(=O)(=O)NC(=O)Nc1nc(C)nc(OC)n1 [Thifensulfuron methyl],5.04
11,CCN(CC)C(=O)SCc1ccc(Cl)cc1 [Thiobencarb],12.9
12,COC(=O)NC(=S)Nc1ccccc1NC(=S)NC(=O)OC [Thiophanate-methyl],7.2
13,C=CC1(C)CC(OC(=O)CSCCN(CC)CC)C2(C)C(C)CCC3(CCC(=O)C32)C(C)C1O (stereo not drawn) [Tiamulin],9.22
14,Clc1ccccc1CN1CCc2sccc2C1 [Ticlopidine],12.1
15,CCC1OC(=O)CC(O)C(C)C(OC2OC(C)C(O)C(N(C)C)C2O)C(CCN2CC(C)CC(C)C2)CC(C)C(=O)C=CC(C)=CC1COC1OC(C)C(O)C(OC)C1OC (stereo not drawn) [Tilmicosin],8.78
16,CCCCNC(=O)NS(=O)(=O)c1ccc(C)cc1 [Tolbutamide],8.33
17,COP(=S)(OC)Oc1c(Cl)cc(C)cc1Cl [Tolclofos-methyl],12.1
18,Cc1c(Cl)cccc1Nc1ccccc1C(=O)O [Tolfenamic acid],11
19,Cc1ccc(N(SC(F)(Cl)Cl)S(=O)(=O)N(C)C)cc1 [Tolyfluanid],12.4
20,CC(C)N(C(=O)SCC(Cl)=C(Cl)Cl)C(C)C [Tri-allate],13.3
21,CC(C)(C)C(=O)C(Oc1ccc(Cl)cc1)n1cncn1 (stereo not drawn) [Triadimefon],10.6
22,CC(C)(C)C(O)C(Oc1ccc(Cl)cc1)n1cncn1 (stereo not drawn) [Triadimenol],11.3
23,CC1(C)OC2CC3C4CCC5=CC(=O)C=CC5(C)C4(F)C(O)CC3(C)C2(C(=O)CO)O1 (stereo not drawn) [Triamcinolone acetonide],9.42

row,SMILES,LC retention time [min]
1,CC12C=CC(=O)C=C1CCC1C3CC(O)C(O)(C(=O)CO)C3(C)CC(O)C12F (stereo not drawn) [Triamcinolone],6.95
2,COc1nc(C)nc(NC(=O)NS(=O)(=O)c2ccccc2OCCCl)n1 [Triasulfuron],6.67
3,[O-][n+]1nc(-n2ccnc2)nc2ccc(Cl)cc21 [Triazoxide],8.54
4,COC(=O)c1ccccc1S(=O)(=O)NC(=O)N(C)c1nc(C)nc(OC)n1 [Tribenuron methyl],7.52
5,COP(=O)(OC)C(O)C(Cl)(Cl)Cl (stereo not drawn) [Trichlorfon],4.7
6,Cc1cccc2sc3nncn3c12 [Tricyclazole],6.05
7,CCCOCC(=Nc1ccc(Cl)cc1C(F)(F)F)n1ccnc1 [Triflumizole],12.7
8,O=C(NC(=O)c1ccccc1Cl)Nc1ccc(OC(F)(F)F)cc1 [Triflumuron],12
9,CN(C)CCCN1c2ccccc2Sc2ccc(C(F)(F)F)cc21 [Triflupromazine],10.6
10,COC(=O)c1cccc(C)c1S(=O)(=O)NC(=O)Nc1nc(OCC(F)(F)F)nc(N(C)C)n1 [Triflusulfuron-methyl],9.27
11,CCOC(=O)C1CC(=O)C(=C(O)C2CC2)C(=O)C1 (stereo not drawn) [Trinexapac-ethyl],7.6
12,Cc1ccc(C(=CCN2CCCC2)c2ccccn2)cc1 [Triprolidine],7.64
13,CC1(C)CCC(=Cc2ccc(Cl)cc2)C1(O)Cn1cncn1 (stereo not drawn) [Triticonazole],11
14,CC(C)(C)NCC(O)c1ccccc1Cl (stereo not drawn) [Tulobuterol],5.6
15,COc1ccc(C(CN(C)C)C2(O)CCCCC2)cc1 (stereo not drawn) [Venlafaxine],7.23
16,CCCSC(=O)N(CCC)CCC [Vernolat],12.2
17,COCC1OC(=O)c2coc3c2C1(C)C1=C(C3=O)C2CCC(=O)C2(C)CC1OC(C)=O (stereo not drawn) [Wortmannin],7.75
18,Cc1cccc(C)c1NC1=NCCCS1 [Xylazine],4.92
19,CC1CCCC(=O)CCCC=Cc2cc(O)cc(O)c2C(=O)O1 (stereo not drawn) [Zearalenone],10.5
20,CC1CCCC(O)CCCCCc2cc(O)cc(O)c2C(=O)O1 (stereo not drawn) [Zeranol (Alfa Zearalanol. a-ZAL)],10.7
21,CCCCCCCCC=CC1CCC(=O)O1 (stereo not drawn) [japonilure],9.82
22,Clc1cccc(N2CCNCC2)c1 [mCCP],5.23

# Source: the RepoRT retention time repository (doi:10.1016/j.scitotenv.2015.08.078)
